These results are taken from patent US20260193271A1, “PAN-KRAS INHIBITOR COMPOUND” (ADLAI NORTYE BIOPHARMA CO., LTD., priority 2022, published 2026).

One assay deals with SW480 (G12V). Description: In vitro cell proliferation inhibition test (CellTiter-Glo), SW480. The class given is cell-based. To be noted: Homo sapiens, SW480 colon cell line, KRAS (p.G12V), 72 h co-incubation. The source says:
(§1) Test Example 1: In Vitro Cell Proliferation Inhibition Test
(§2) Due to the diversity of RAS mutations and in order to evaluate the activity of compounds in different RAS mutation cell lines, we selected KRAS^WT, KRAS^G12C, KRAS^G12D, KRAS^G12V and BRAF mutation cell lines (see the table below) for in vitro activity evaluation and screening of compounds.
(§3) Protocol: CellTiter-Glo® Cell Luminescent Viability Assay (Promega)
(§4) According to the doubling time of different cell lines, different numbers of cells (1000-5000 cells/well) were seeded in 96-well plates containing 180 μl of corresponding culture medium and cultured overnight in a cell culture incubator at 37° C. with 5% CO2. On the second day, the test compound was pre-diluted 3-fold with culture medium, with the highest concentration being 100 μM, for a total of 10 concentration gradients; then 20 μl of culture medium containing different concentrations of the compound was added to the cells in the 96-well plate to ensure that the final concentration of the compound was up to 10 μM, with 10 concentration gradients of 3-fold dilution. After the cells and compounds were co-incubated for 72 h, the 96-well plate was removed from the incubator and equilibrated at room temperature for 30 min. Then, 25 μl of CellTiter-Glo® Reagent was added to each well and mixed thoroughly. The mixture was incubated at room temperature for 10 min, and then 100 μl of the sample was transferred to a white 96-well plate (OptiPlate™-96, PerkinElmer). The […] signal value was read using a multi-function microplate reader (SpectraMax® i3x, Molecular devices). The signal values were then standardized, and the curve was fitted using a four-parameter regression equation to calculate the half maximal inhibitory concentration (IC50) of the compound on the cell line.
For orientation: In ATP-based viability assays light output follows the ATP content of the culture.

The test system of the next assay is AsPC-1 (G12D). The experiment in a line: In vitro cell proliferation inhibition test (CellTiter-Glo), AsPC-1. The class given is cell-based. To be noted: KRAS (p.G12D), 72 h co-incubation.
From the text: as §1, §2, §3, §4

[1] abbreviates: Homo sapiens, ASPC1, AsPC-1 pancreas cell line.

What is called IC50 is the point on the concentration scale where inhibition reaches its midpoint.

In the case of `CCn1c(-c2cc(-c3ccc(CN4CCOCC4)cc3)cnc2[C@H](C)OC)c2c3cc(ccc31)-c1csc(n1)C[C@H](NC(=O)[C@H]1[C@H](C)[C@@H]1C)C(=O)N1CCC[C@H](N1)C(=O)OCC(C)(C)C2` (atropisomer, axis not shown) [Compound 1, (1r,2R,3S)-N-((6^3S,4S,Z)-1^1-ethyl-1^2-(2-((S)-1-methoxyethyl)-5-(4-(morpholinomethyl)phenyl)pyridin-3-yl)-10,10-dimethyl-5,7-dioxo-6^1,6^2,6^3,6^4,6^5,6^6-hexahydro-1^1H-8-oxa-2(4,2)-thiazola-1(5,3)-indola-6(1,3)-pyridazinacycloundecaphane-4-yl)-2,3-dimethylcyclopropane-1-carboxamide], the IC50 in the assay on SW480 (G12V) was determined as 1.3 nM; with AsPC-1 (G12D) (setting [1]) it was 1.1 nM. The corresponding values for `CCn1c(-c2cc(-c3ccc4c(c3)CN(C)C4)cnc2[C@H](C)OC)c2c3cc(ccc31)-c1csc(n1)C[C@H](NC(=O)[C@H]1C[C@@H]1C)C(=O)N1CCC[C@H](N1)C(=O)OCC(C)(C)C2` (atropisomer, axis not shown) [Compound 2, (1S,2S)-N-((6^3S,4S,Z)-1^1-ethyl-1^2-(2-((S)-1-methoxyethyl)-5-(2-methylisoindolin-5-yl)pyridin-3-yl)-10,10-dimethyl-5,7-dioxo-6^1,6^2,6^3,6^4,6^5,6^6-hexahydro-1^1H-8-oxa-2(4,2)-thiazola-1(5,3)-indola-6(1,3)-pyridazinacycloundecaphane-4-yl)-2-methylcyclopropane-1-carboxamide] are 670 nM and 21 nM. The corresponding values for `CCn1c(-c2cc(-c3ccc4c(c3)CCN(C)C4)cnc2[C@H](C)OC)c2c3cc(ccc31)-c1csc(n1)C[C@H](NC(=O)[C@H]1[C@H](C)[C@@H]1C)C(=O)N1CCC[C@H](N1)C(=O)OCC(C)(C)C2` (atropisomer, axis not shown) [Compound 3, (1r,2R,3S)-N-((6^3S,4S,Z)-1^1-ethyl-1^2-(2-((S)-1-methoxyethyl)-5-(2-methyl-1,2,3,4-tetrahydroisoquinolin-6-yl)pyridin-3-yl)-10,10-dimethyl-5,7-dioxo-6^1,6^2,6^3,6^4,6^5,6^6-hexahydro-1^1H-8-oxa-2(4,2)-thiazola-1(5,3)-indola-6(1,3)-pyridazinacycloundecaphane-4-yl)-2,3-dimethylcyclopropane-1-carboxamide] are 0.33 nM and 0.18 nM. The corresponding values for `CCn1c(-c2cc(-c3cccc(CN(C)C)c3)cnc2[C@H](C)OC)c2c3cc(ccc31)-c1csc(n1)C[C@H](NC(=O)[C@H]1[C@H](C)[C@@H]1C)C(=O)N1CCC[C@H](N1)C(=O)OCC(C)(C)C2` (atropisomer, axis not shown) [Compound 4, (1r,2R,3S)-N-((6^3S,4S,Z)-1^2-(5-(3-((dimethylamino)methyl)phenyl)-2-((S)-1-methoxyethyl)pyridin-3-yl)-1^1-ethyl-10,10-dimethyl-5,7-dioxo-6^1,6^2,6^3,6^4,6^5,6^6-hexahydro-1^1H-8-oxa-2(4,2)-thiazola-1(5,3)-indola-6(1,3)-pyridazinacycloundecaphane-4-yl)-2,3-dimethylcyclopropane-1-carboxamide] are 1.6 nM and 2.6 nM.

Turning to `CCn1c(-c2cc(-c3ccc(CN4CCOCC4)nc3)cnc2[C@H](C)OC)c2c3cc(ccc31)-c1csc(n1)C[C@H](NC(=O)[C@H]1C[C@@H]1C)C(=O)N1CCC[C@H](N1)C(=O)OCC(C)(C)C2` (atropisomer, axis not shown) [Compound 5, (1S,2S)-N-((6^3S,4S,Z)-1^1-ethyl-1^2-(6-((S)-1-methoxyethyl)-6′-(morpholinomethyl)-[3,3′-bipyridin]-5-yl)-10,10-dimethyl-5,7-dioxo-6^1,6^2,6^3,6^4,6^5,6^6-hexahydro-1^1H-8-oxa-2(4,2)-thiazola-1(5,3)-indola-6(1,3)-pyridazinacycloundecaphane-4-yl)-2-methylcyclopropane-1-carboxamide], the IC50 in the assay with SW480 (G12V) amounted to 10 nM; with AsPC-1 (G12D) (setting [1]) it was 6 nM.

Turning to `CCn1c(-c2cc(-c3ccc(CN4CC[C@@H](F)C4)cc3)cnc2[C@H](C)OC)c2c3cc(ccc31)-c1csc(n1)C[C@H](NC(=O)[C@H]1C[C@@H]1C)C(=O)N1CCC[C@H](N1)C(=O)OCC(C)(C)C2` (atropisomer, axis not shown) [Compound 6, (1S,2S)-N-((6^3S,4S,Z)-1^1-ethyl-1^2-(5-(4-(((R)-3-fluoropyrrolidin-1-yl)methyl)phenyl)-2-((S)-1-methoxyethyl)pyridin-3-yl)-10,10-dimethyl-5,7-dioxo-6^1,6^2,6^3,6^4,6^5,6^6-hexahydro-1^1H-8-oxa-2(4,2)-thiazola-1(5,3)-indola-6(1,3)-pyridazinacycloundecaphane-4-yl)-2-methylcyclopropane-1-carboxamide], the results for the 50% inhibitory concentration (IC50) with SW480 (G12V) and in the assay on AsPC-1 (G12D) (setting [1]) were 23 nM and 13 nM, respectively. The corresponding values for `CCn1c(-c2cc(-c3ccc(CN4CCC(F)(F)CC4)cc3)cnc2[C@H](C)OC)c2c3cc(ccc31)-c1csc(n1)C[C@H](NC(=O)[C@H]1C[C@@H]1C)C(=O)N1CCC[C@H](N1)C(=O)OCC(C)(C)C2` (atropisomer, axis not shown) [Compound 7, (1S,2S)-N-((6^3S,4S,Z)-1^2-(5-(4-((4,4-difluoropiperidin-1-yl)methyl)phenyl)-2-((S)-1-methoxyethyl)pyridin-3-yl)-1^1-ethyl-10,10-dimethyl-5,7-dioxo-6^1,6^2,6^3,6^4,6^5,6^6-hexahydro-1^1H-8-oxa-2(4,2)-thiazola-1(5,3)-indola-6(1,3)-pyridazinacycloundecaphane-4-yl)-2-methylcyclopropane-1-carboxamide] are 159 nM and 128 nM. For the compound `CCn1c(-c2cc(-c3cc(C4COCCN4C)on3)cnc2C(C)OC)c2c3cc(ccc31)-c1csc(n1)CC(NC(=O)C1C(C)C1C)C(=O)N1CCCC(N1)C(=O)OCC(C)(C)C2` [Compound 33′, (1r,2R,3S)-N-((6^3S,4S,Z)-1^1-ethyl-1^2-(2-((S)-1-methoxyethyl)-5-(5-((R)-4-methylmorpholin-3-yl)isoxazol-3-yl)pyridin-3-yl)-10,10-dimethyl-5,7-dioxo-6^1,6^2,6^3,6^4,6^5,6^6-hexahydro-1^1H-8-oxa-2(4,2)-thiazola-1(5,3)-indola-6(1,3)-pyridazinacycloundecaphane-4-yl)-2,3-dimethylcyclopropane-1-carboxamide], the IC50 with AsPC-1 (G12D) (AsPC-1 pancreas cell line) was 32 nM. The same measure, in the same setting: with `CCn1c(-c2cc(-c3cc(C4(C)CN(C)C4)on3)cnc2C(C)OC)c2c3cc(ccc31)-c1csc(n1)CC(NC(=O)C1C(C)C1C)C(=O)N1CCCC(N1)C(=O)OCC(C)(C)C2` [Compound 34′, (1r,2R,3S)-N-((6^3S,4S,Z)-1^2-(5-(5-(1,3-dimethylazetidin-3-yl)isoxazol-3-yl)-2-((S)-1-methoxyethyl)pyridin-3-yl)-1^1-ethyl-10,10-dimethyl-5,7-dioxo-6^1,6^2,6^3,6^4,6^5,6^6-hexahydro-1^1H-8-oxa-2(4,2)-thiazola-1(5,3)-indola-6(1,3)-pyridazinacycloundecaphane-4-yl)-2,3-dimethylcyclopropane-1-carboxamide] the figure was 116 nM; with “(1S,2S)-N-((6^3S,4S,Z)-1^1-ethyl-1^2-(2-((S)-1-methoxyethyl)-5-(1-(2-morpholinoethyl)-1H-pyrazol-4-yl)pyridin-3-yl)-10,10-dimethyl-5,7-dioxo-6^1,6^2,6^3,6^4,6^5,6^6-hexahydro-1^1H-8-oxa-2(4,2)-thiazola-1(5,3)-indola-6(1,3)-pyridazinacycloundecaphane-4-yl)-2-methylcyclopropane-1-carboxamide [Compound 15′]”, 1020 nM; with “(1S,2S)-N-((6^3S,4S,Z)-1^1-ethyl-1^2-(2-((S)-1-methoxyethyl)-5-(5-(1-methylazetidin-3-yl)isoxazol-3-yl)pyridin-3-yl)-10,10-dimethyl-5,7-dioxo-6^1,6^2,6^3,6^4,6^5,6^6-hexahydro-1^1H-8-oxa-2(4,2)-thiazola-1(5,3)-indola-6(1,3)-pyridazinacycloundecaphane-4-yl)-2-methylcyclopropane-1-carboxamide [Compound 31′]”, 53 nM. On the same count and under the same terms, to “(1S,2S)-N-((6^3S,4S,Z)-1^1-ethyl-1^2-(2-((S)-1-methoxyethyl)-5-(5-(1-methylpiperidin-4-yl)isoxazol-3-yl)pyridin-3-yl)-10,10-dimethyl-5,7-dioxo-6^1,6^2,6^3,6^4,6^5,6^6-hexahydro-1^1H-8-oxa-2(4,2)-thiazola-1(5,3)-indola-6(1,3)-pyridazinacycloundecaphane-4-yl)-2-methylcyclopropane-1-carboxamide [Compound 30′]” belongs 60 nM.
